Measured values taken from the supplement of paper PMC10307832.

Key:
Assay in all cases: relative viability (nuclei count vs DMSO), 5 days (fraction); higher = more cells survive
[1] = compound: CC(C)N(CCCNC(=O)Nc1ccc(C(C)(C)C)cc1)C[C@H]1O[C@@H](n2ccc3c(N)ncnc32)[C@H](O)[C@@H]1O + CC(C)C[C@H](NC(=O)[C@H](Cc1ccccc1)NC(=O)c1cnccn1)B(O)O [Bortezomib] (partner 0.002 µM)
In short: (§1)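 Lung cancer cell lines were seeded in 1536-well plates and dosed by pin tool the next day, with either a single drug or a fixed anchor-drug dose combined with five library-drug doses (not always all listed) spaced in √10 steps. Five days later, one step fixed the cells and stained their nuclei (final 0.05% Triton X-100, 1% formaldehyde, 1 ug/ml Hoechst), and nuclei were counted on 4× images. Relative viability is the nuclei count in treated wells divided by the count in vehicle wells, and each value is the median of duplicate plates.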

[2] = compound: CC(C)N(CCCNC(=O)Nc1ccc(C(C)(C)C)cc1)C[C@H]1O[C@@H](n2ccc3c(N)ncnc32)[C@H](O)[C@@H]1O + C[C@]1(O)C[C@@H](c2nc(-c3ccc4ccc(-c5ccccc5)nc4c3)c3c(N)nccn32)C1 [Linsitinib] (partner 1 µM)
In short: as §1

Shikonin + Tozasertib = compound: CC(C)=CC[C@@H](O)C1=CC(=O)c2c(O)ccc(O)c2C1=O [Shikonin] + Cc1cc(Nc2cc(N3CCN(C)CC3)nc(Sc3ccc(NC(=O)C4CC4)cc3)n2)n[nH]1 [Tozasertib] (partner 0.1 µM)
In short: as §1

[3] = compound: CC(C)N(CCCNC(=O)Nc1ccc(C(C)(C)C)cc1)C[C@H]1O[C@@H](n2ccc3c(N)ncnc32)[C@H](O)[C@@H]1O + COc1cc2c(Oc3ccc(NC(=O)C4(C(=O)Nc5ccc(F)cc5)CC4)cc3F)ccnc2cc1OCCCN1CCOCC1 [Foretinib] (partner 0.25 µM)
In short: as §1

Cell Line | relative viability ([1]; first compound 0.08 µM) | relative viability ([1]; first compound 0.253 µM) | relative viability ([1]; first compound 0.8 µM) | relative viability ([1]; first compound 2.53 µM) | relative viability ([1]; first compound 8 µM) | relative viability ([2]; first compound 0.08 µM) | relative viability ([2]; first compound 0.253 µM) | relative viability ([2]; first compound 0.8 µM) | relative viability ([2]; first compound 2.53 µM) | relative viability ([2]; first compound 8 µM) | relative viability (Shikonin + Tozasertib; first compound 0.01 µM) | relative viability (Shikonin + Tozasertib; first compound 0.1 µM) | relative viability (Shikonin + Tozasertib; first compound 0.3162 µM) | relative viability (Shikonin + Tozasertib; first compound 1 µM) | relative viability ([3]; first compound 0.08 µM) | relative viability ([3]; first compound 0.253 µM) | relative viability ([3]; first compound 2.53 µM) | relative viability ([3]; first compound 8 µM) | relative viability ([3]; first compound 0.8 µM)
201T | 1.08 | 1.11 | 1.03 | 1.07 | 1.06 | 1.01 | 1.06 | 0.981 | 1.01 | 1.08 | 0.99 | 1.14 | 0.968 | 0.935 | 1.05 | 1.04 | 1.13 | 1.13 | –
A549 | – | – | – | – | – | 0.561 | 0.554 | 0.525 | 0.679 | 0.635 | – | – | – | – | 0.939 | 1.06 | 0.522 | 0.885 | 1.05
A-427 | 0.927 | 0.973 | 0.996 | 1.01 | 0.967 | 1.18 | 1.12 | 1.1 | 1.12 | 1.14 | 0.198 | 0.192 | 0.159 | 0.225 | 1.08 | 1.04 | 1.1 | 0.966 | 1.1
ABC-1 | 0.28 | 0.249 | – | 0.344 | 0.325 | 0.978 | 0.95 | – | 0.709 | 0.905 | 0.141 | 0.196 | 0.188 | 0.187 | 0.92 | 1 | 1.41 | 1.07 | –
BEN | 0.934 | 0.762 | 0.776 | 0.662 | 0.57 | 0.819 | 0.849 | 0.924 | 1.01 | 0.865 | 0.508 | 0.507 | 0.51 | 0.52 | 0.629 | 0.935 | 0.567 | 0.697 | 0.689
CAL-12T | 1.04 | 0.739 | 0.907 | 0.847 | 0.784 | 0.788 | 0.772 | 0.809 | 0.89 | 0.739 | 0.322 | 0.294 | 0.325 | 0.432 | 1.2 | 1.06 | 1.2 | 0.944 | 1.07
COR-L23 | 0.87 | 0.968 | 0.464 | 1.1 | 0.929 | 0.837 | 0.934 | 0.916 | 1.04 | 0.897 | 0.202 | 0.197 | 0.171 | 0.149 | 0.843 | 1.02 | 0.986 | 0.962 | 1.02
COR-L 105 | 0.719 | 0.537 | 0.719 | 0.744 | 0.75 | 0.805 | 1.18 | 1.07 | 0.727 | 0.896 | 0.254 | 0.318 | 0.327 | 0.366 | 1.14 | 0.99 | 1.07 | 1.03 | 1.02
Calu-6 | 1.02 | 0.999 | 1.06 | 1 | 1.01 | 1 | 0.933 | 0.871 | 0.988 | 0.858 | – | – | – | – | 0.847 | 0.872 | 0.839 | 0.823 | 0.923
ChaGo-K-1 | 1.08 | 0.886 | 0.87 | 1.01 | 1.08 | – | – | – | – | – | 0.212 | 0.232 | 0.236 | 0.248 | 0.915 | 0.924 | 0.901 | 0.976 | 0.974
EBC-1 | 0.508 | 0.549 | 0.486 | 0.466 | 0.473 | 0.656 | 0.74 | 0.598 | 0.885 | 0.727 | – | – | – | – | 0.108 | 0.098 | 0.0973 | 0.121 | 0.1
EKVX | 1.06 | 1.24 | 1.08 | 0.993 | 0.786 | 0.941 | 0.972 | 0.914 | 0.943 | 0.927 | 0.387 | 0.327 | 0.402 | 0.414 | 0.787 | 0.793 | 0.801 | 0.665 | 0.804
EMC-BAC-2 | 1 | 1.12 | 0.948 | 0.994 | 0.904 | 0.764 | 0.835 | 0.794 | 0.806 | 0.804 | 0.279 | 0.283 | 0.323 | 0.267 | 0.975 | 0.98 | 1.09 | 0.935 | 1.04
EPLC-272H | 0.871 | 0.819 | 0.397 | 0.923 | 0.942 | 1.12 | 1.09 | 1.05 | 1.03 | 1.05 | 0.226 | 0.215 | 0.249 | 0.191 | 0.688 | 0.469 | 0.845 | 0.669 | 0.73
H3255 | 0.867 | 0.618 | 0.406 | 0.638 | 0.747 | 0.804 | 0.958 | 0.947 | 0.994 | 0.84 | 0.804 | 0.535 | 0.64 | 0.797 | 0.92 | 0.881 | 0.797 | 0.792 | 0.897
HARA | 1.13 | 1.15 | 0.604 | 1.03 | 1.02 | 0.885 | 0.845 | 0.868 | 0.794 | 0.906 | 0.0977 | 0.0981 | 0.115 | 0.113 | 0.751 | 0.878 | 0.6 | 0.738 | 0.756
HCC-15 | 0.979 | 1.04 | 0.773 | 1 | 0.943 | 0.84 | 0.908 | 0.909 | 0.9 | 0.859 | 0.459 | 0.445 | 0.33 | 0.465 | 0.948 | 1.04 | 0.998 | 0.981 | 1.11
HCC-44 | 0.902 | 1.01 | 0.774 | 0.991 | 0.842 | 0.647 | 0.68 | 0.748 | 0.666 | 0.729 | 0.901 | 0.732 | 1.19 | 0.937 | – | – | – | – | –
